Experiment [1] concerns the target wild-type FKBP (Homo sapiens, UniProt P62942). The conditions noted are these: wild-type FKBP versus FV; cited from earlier work.
For experiment [2], the target named is FKBPs with a single amino acid substitution, Phe36Val (FV) (Homo sapiens, UniProt P62942, F37V). The note with it: FKBP Phe36Val (FV); cited from earlier work.
The test system of experiment [3] is PC3 cells. Nature of the experiment: Dynein-mediated transport to the nuclear surface in cultured cells (fluorescence microscopy, FIG. 1). It is filed as cell-based. The conditions noted are these: rhodamine-labeled GFP plasmid conjugated to peptide, formulated with CD-IPEI at 5+/-, 1 μg plasmid, 5 hours exposure. As to the method:
PC3 cells were plated at 100,000 cells/mL in 6-well plates containing a clean glass coverslip at the bottom of each well one day before transfection. For transfection, 1 μg of plasmid was mixed with a linear, cyclodextrin polycation (CD-IPEI) at 5+/− and mixed with cells in 1 mL of Opti-MEM. Transfection solution was removed 5 hours after exposure and replaced with complete media. Cells were washed with PBS, fixed with formalin (0.5 mL for 10 minutes), and washed 3 times with PBS. The coverslips were then removed from the wells and mounted on glass slides with Prolong Antifade (Molecular Probes, Eugene, Oreg.).

Experiment [4] addresses DLC8 (Homo sapiens, UniProt P63167). The note with it: nine-residue peptide from the Bim protein (Lo et al.); cited from earlier work.

Chain of wild-type FKBP (P62942 whole entry): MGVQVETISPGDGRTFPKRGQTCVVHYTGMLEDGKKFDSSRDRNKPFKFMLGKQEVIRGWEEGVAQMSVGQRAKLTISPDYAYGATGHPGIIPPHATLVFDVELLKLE
Chain of FKBPs with a single amino acid substitution, Phe36Val (FV) (P62942 whole entry F37V): as the sequence (P62942 whole entry) above, with F37V counted along it
Chain of DLC8 (P63167 whole entry, species assumed): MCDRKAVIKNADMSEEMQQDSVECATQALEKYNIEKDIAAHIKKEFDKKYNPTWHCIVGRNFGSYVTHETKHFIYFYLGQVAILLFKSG

As to `CC[C@H](C(=O)N1CCCC[C@H]1C(=O)O[C@H](CCc1ccc(OC)c(OC)c1)c1cccc(OCC(=O)NCCNC(=O)COc2cccc([C@@H](CCc3ccc(OC)c(OC)c3)OC(=O)[C@@H]3CCCCN3C(=O)[C@@H](CC)c3cc(OC)c(OC)c(OC)c3)c2)c1)c1cc(OC)c(OC)c(OC)c1` [AP1903], the “lower affinity to the wild-type protein relative to Phe36Val FKBP” value in experiment [1] is reported as 1000 fold. In addition, in experiment [2], the binding affinity entry was “subnanomolar”. As to `CC[C@H](C(=O)N1CCCC[C@H]1C(=O)O[C@H](CCc1ccc(OC)c(OC)c1)c1cccc(OCC(=O)NCC(CNC(=O)COc2cccc([C@@H](CCc3ccc(OC)c(OC)c3)OC(=O)[C@@H]3CCCCN3C(=O)[C@@H](CC)c3cc(OC)c(OC)c(OC)c3)c2)CN(C)C)c1)c1cc(OC)c(OC)c(OC)c1` [AP20187], the “lower affinity to the wild-type protein relative to Phe36Val FKBP” value in experiment [1] is on record as 1000 fold. Moreover, the binding affinity result in experiment [2] is listed as “subnanomolar”. Take CSYSKETQPL [dynein-binding peptide]: the “transport of plasmid DNA toward the nucleus” value in experiment [3] is recorded as “facilitates transport toward the nucleus”. Turning to “MSCDKSTQT [nine-peptide from the Bim protein]”, in experiment [4], the DLC8 binding entry was “can bind DLC8”.
